Experimental data as given in patent US10898708B2, “System and method for applying pulsed electromagnetic fields” (National University of Singapore, priority 2015, dated 2021).
Entries after “also recorded” stand apart in the source; their conditions may differ.

Legend:
[1] = tested on: C2C12 myoblasts; assay: Intracellular calcium in C2C12 myoblasts (Calcium Green-1; flow cytometry or plate reading); format: cell-based, mouse
Protocol: In preparation for measurement of changes in intracellular calcium in response to PEMF treatment with flow cytometry myoblasts (50,000 cells) were spun down (1000 RCF; 5 minutes), resuspended in 2 ml of PBS and next loaded with 20 μl Calcium Green-1, AM (50 μg in 100 μl DMSO; Molecular Probes) for 30 minutes at 37 C in the dark. Following incubation, cells were washed once, resuspended into 500 μl PBS and placed on ice before registry in a BD FACSAria Flow Cytometer (FL1 channel). For plate reading assessment of intracellular calcium, myoblasts were plated into 96 black well plates (Brand 96 Flat Bottom Black) at 10,000 cells/wells. Cultures were washed once with PBS and supplied with 250 μl growth media to which Calcium Green-1 AM (50 μg in 100 μl DMSO; Molecular Probes) had been added at a dilution of 1:1000. Myoblasts cultures were then incubated in a standard tissue culture incubator for 5 minutes, followed by PEMF exposure for 10 minutes and then replaced in the incubator for an additional 15 minutes at 37° C. before washing with 37° C. PBS. Calcium measurement was conducted using a Tecan Infinite 200Pro plate reader with excitation wavelength and emission wavelengths set to 500 nm and 535 nm, respectively, and bandwidth excitation and emission wavelengths set to 9 and 20 nm, respectively.
(§1) Each pulse train consists of 20×150 μsec asymmetric pulses separated by 150 μsec interpulse intervals to the 0 flux level. The magnetic flux density rose to maximal level within 20-50 μsec and dropped equally as rapidly (50 T/s).

[2] = tested on: C2C12 myoblasts; assay: PEMF-induced proliferation of C2C12 myoblasts; settings: 100 μM; 1 mT PEMFs within 18 hours after plating
[3] = tested on: C2C12 myoblasts; assay: Cell cycle (G2/M accumulation) of myoblasts in simulated microgravity; format: cell-based, mouse; settings: 5 mM added transiently 10 minutes before simulated microgravity; at 2 hours
Protocol: The RPM was kept in a temperature-controlled room at 37° C. The calculated gravity exerted upon cells on the RPM was below 0.02 g. Cells were seeded 15 hours prior to the start of the RPM experiment at 8000/cm^2. At 15 hours some samples were incubated with 5 mM CaCl2 for 10 min, washed twice with PBS, given aged matched GM and placed onto the RPM. Other samples were exposed to PEMF at 37° C. (0.5 or 1.5 mT) for 10 min before being placed onto the RPM. Samples were fixed after 2 hours for subsequent cell cycle analysis as described below.
Following RPM treatment (above) cells were fixed and stored at −20° C. in 70% ice-cold ethanol for 12 to 18 hours prior to staining. Cell cycle was analyzed based on DNA content using a propidium iodide (PI)/RNase staining kit (BD Biosciences, cat#550825) by FACS.

[4] = molecular target: T1, TRPC1 channel (Homo sapiens, UniProt P48995); assay: Oxygen consumption rate (OCR) of myoblasts in response to PEMF; format: cell-based; settings: oxygen consumption measured 6 hours after PEMF
T1 construct: PEMF-induced TRPC1-mediated calcium entry in myoblasts increases oxygen consumption rate (OCR); endogenous in cells
T1 sequence (P48995 whole entry): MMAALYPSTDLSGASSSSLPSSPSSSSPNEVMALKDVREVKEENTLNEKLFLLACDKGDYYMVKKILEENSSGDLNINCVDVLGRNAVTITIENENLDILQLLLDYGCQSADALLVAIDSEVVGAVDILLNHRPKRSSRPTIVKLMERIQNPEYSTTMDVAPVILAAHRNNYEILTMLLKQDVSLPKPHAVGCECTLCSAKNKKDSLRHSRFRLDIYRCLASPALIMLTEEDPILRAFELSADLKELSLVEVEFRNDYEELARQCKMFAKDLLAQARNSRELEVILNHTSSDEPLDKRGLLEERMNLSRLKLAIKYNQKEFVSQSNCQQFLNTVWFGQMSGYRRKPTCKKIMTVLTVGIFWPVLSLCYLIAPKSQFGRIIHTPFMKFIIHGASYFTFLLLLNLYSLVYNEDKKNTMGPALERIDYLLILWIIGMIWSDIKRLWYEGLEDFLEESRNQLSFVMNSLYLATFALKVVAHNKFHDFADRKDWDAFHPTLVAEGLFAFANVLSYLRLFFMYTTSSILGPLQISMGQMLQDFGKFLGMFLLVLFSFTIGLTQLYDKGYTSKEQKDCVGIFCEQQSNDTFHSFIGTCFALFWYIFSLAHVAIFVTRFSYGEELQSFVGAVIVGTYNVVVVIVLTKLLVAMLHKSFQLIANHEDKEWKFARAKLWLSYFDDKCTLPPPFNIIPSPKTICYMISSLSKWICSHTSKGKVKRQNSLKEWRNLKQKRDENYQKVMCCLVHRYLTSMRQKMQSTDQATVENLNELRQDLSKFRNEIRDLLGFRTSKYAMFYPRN
Protocol: Muscle gene expression enhanced by PEMF treatment as indicated. […] The principal functions of these genes are shown in the parentheses. […] A) Human myoblast measurement showing increased OCR six hours following exposure to 1.5 mT PEMFs for 10 minutes. B) The production of reactive oxygen species (ROS) also increases 15 minutes after PEMF (1.5 mT) exposure.
C) Oxygen consumption rate (OCR) in response to PEMF stimulation obeys the same EMF efficacy window as proliferation. […] Cells were exposed to PEMFs and oxygen consumption measured 6 hours later. These cellular responses obey a mitohormeitic EMF efficacy window particular for skeletal muscle.

[5] = tested on: C2C12 myoblasts; assay: Myogenic differentiation (myotube area) of C2C12 myoblasts after PEMF; format: cell-based, mouse; settings: 100 μM co-administered; 1 mT PEMFs, early application
Protocol: Series of 4 images with 20× magnification were taken for each sample and myotube area was calculated by manually delimiting the myotube periphery using ImageJ (Cell Counter plugin).
as §1

[6] = extracellular magnesium raised to 10 mM, plate reading

Compound: NCCOB(c1ccccc1)c1ccccc1 [2-APB, 2-Aminoethyl diphenylborinate]
- [Ca^2+]i / cytosolic calcium level ([1]; 10 μM, unstimulated (0 mT) and stimulated (1 mT) myoblasts): reduced the cytosolic calcium levels to a common baseline; also recorded: reduced [Ca^2+]i to a common baseline
- PEMF-provoked calcium increments ([1]; antagonizing TRPM7/C1 channels, 1 mT PEMFs): precluded the ability of PEMFs to provoke calcium increments
- PEMF-induced proliferation [2]: abolished the ability of PEMFs to enhance proliferation

Compound: [Ca+2].[Cl-].[Cl-] [CaCl2]
- Reversal of G2/M accumulation from simulated microgravity [3]: mimic the effects of 1.5 mT PEMFs

Compound: COc1ccc(CCCOC(Cn2ccnc2)c2ccc(OC)cc2)cc1 (centres unmarked) [SKF-96365]
- OCR in response to PEMF exposure [4]: blocks OCR in response to PEMF exposure

Compound: COc1cc(CNC(=O)CCCC/C=C/C(C)C)ccc1O [capsaicin]
- capsaicin calcium response versus response to PEMFs ([1]; 1 mT PEMFs): inversely related to response to 1 mT PEMFs

Compound: C[C@H](CCC(=O)O)C[C@H](C)C[C@H](C)C(=O)/C=C(\O)[C@H](C)C[C@H](C)C/C=C/[C@@H](C)[C@@H](O)[C@@H](C)[C@@H](O)C[C@@H]1CC[C@@](C)([C@H]2CC[C@@](C)([C@@H](C)O)O2)O1 [ionomycin]
- [Ca^2+]i increase relative to unexposed cells ([1]; 1 μM, 30 min, compared with 1 mT PEMFs for 10 min, listed as lonomycin): comparable magnitude
- [Ca^2+]i ([1]; 1 μM, five-hour application): produced lethal [Ca^2+]i

Compound: [Mg+2] [magnesium]
- PEMF-induced rise of intracellular calcium [1, 6]: did not prevent PEMFs from raising intracellular calcium; also recorded: does not prevent PEMFs from raising intracellular calcium
- basal and PEMF-induced calcium levels [1, 6]: augmented both basal and PEMF-induced calcium levels

Compound: neomycin
- PEMF enhancement of myotube size (mean myotube area) [5]: prevented
